According to patent US20200239412A1, “NEW DERIVATES OF DHAA WITH ELECTROSTATIC TUNING” (priority 2017, published 2020):
Several values for one entry are separate records, joined by “and”; a condition that tells them apart may be missing. Equal values may be shown once. Where a name gives a salt, the structure may show the parent alone.

Legend:
Assay type in all cases: cell-based
[1] = molecular target: 3R Shaker Kv channel (M356R/A359R) (Drosophila melanogaster, UniProt P08510, A359R/DEL6-46/M356R); test: in vitro; conditions: for G(V) shift: mean; for pKa at 100 μM: Drosophila, functional pH dependence, read-out: Functional pKa (pH where half of the maximum G(V) shift was achieved)
3R Shaker Kv channel (M356R/A359R), sequence (P08510 other isoform, or with tags, fused parts or gaps DEL6-46/M356R/A359R): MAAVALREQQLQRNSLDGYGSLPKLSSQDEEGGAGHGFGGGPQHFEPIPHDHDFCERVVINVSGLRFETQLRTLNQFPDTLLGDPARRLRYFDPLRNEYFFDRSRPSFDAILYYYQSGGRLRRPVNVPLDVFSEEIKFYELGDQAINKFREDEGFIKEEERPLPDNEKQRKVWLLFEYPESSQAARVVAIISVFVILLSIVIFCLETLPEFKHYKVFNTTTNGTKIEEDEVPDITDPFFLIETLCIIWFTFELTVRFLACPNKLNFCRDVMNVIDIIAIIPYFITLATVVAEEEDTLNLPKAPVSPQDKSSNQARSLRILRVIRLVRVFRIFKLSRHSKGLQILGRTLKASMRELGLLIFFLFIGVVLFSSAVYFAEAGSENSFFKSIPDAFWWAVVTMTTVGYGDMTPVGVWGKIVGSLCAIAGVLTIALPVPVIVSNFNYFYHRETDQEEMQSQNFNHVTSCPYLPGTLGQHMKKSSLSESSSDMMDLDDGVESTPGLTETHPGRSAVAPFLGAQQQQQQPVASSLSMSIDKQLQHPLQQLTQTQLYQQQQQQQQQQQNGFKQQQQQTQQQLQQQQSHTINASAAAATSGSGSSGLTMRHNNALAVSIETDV
From the text: (§1) Experiments were made with the Shaker H4 channel incapable of fast N-type inactivation due to a Δ6-46 deletion, referred to as the wt Shaker Kv channel. The 3R Shaker Kv channel with two additional positively charged arginines (M356R/A359R) in the extracellular end of S4, was also used.
(§2) For the Shaker channels, Bluescript II KS(+) plasmid was linearized with HindIII and synthesis of cRNA were made with the T7 mMessage mMachine kit (Ambion, Austin, Tex.). Point mutations around S4, on the Shaker Kv channel, were introduced using QuickChange Site-Directed Mutagenesis Kit (Agilent Technologies, Santa Clara, Calif.) and sequencing were used for verification.
(§3) 50 nl cRNA was injected into Xenopus laevis oocytes using a Nanoject injector (Drummond Scientific, Broomall, Pa.) and the oocytes were stored at 8° C. in a modified Barth's solution (MBS) before experiments (16° C., M-channel, 1-2 days). The MBS contained (in mM): 88 NaCl, 1 KCl, 2.4 NaHCO3, 15 HEPES, 0.33 Ca(NO3)2, 0.41 CaCl2), and 0.82 MgSO4, pH was adjusted to 7.5 by NaOH and the MBS was supplemented sodium pyruvate (2.5 mM). All animal experiments were approved by the Linkoping's local Animal Care and Use Committee.
(§4) Currents were measured 1-6 days after cRNA injection using the two-electrode voltage clamp technique (GeneClamp 500B amplifier, Axon instruments). Signals were low pass filtered at 5 kHz and digitized by a Digidata 1440A converter (Molecular Devices, Sunnyvale, Calif.). The amplifiers leak compensation was used and Clampex 10.2 software (Molecular Devices) was used to obtain data and create voltage protocols. The extracellular control solution contained (in mM): 1 KCl, 88 NaCl, 0.8 MgCl2, 0.4 CaCl2) and 15 HEPES. pH were adjusted with NaOH. Electrode pipettes were made from borosilicate glass capillaries (Harvard apparatus, Kent, UK) using a two stage electrode puller (Narishige, Tokyo, Japan) and resistance was between 0.5-2.0 MO once filled with 3 M KCl solution. In the voltage protocol for the wt and 3R Shaker channel, holding potential was set to −80 mV and steady-state currents were measured at voltages between −80 and +50 mV (wt Shaker Kv channel) or +70 mV (3R Shaker Kv channel), using 5 mV increments, 100 ms. […] Physiol. 143, 173-182 (2014). For the M-channel, holding potential was set to −100 mV, test-voltages were measured between −120 and +50 mV (10 mV increments for 2 s) and tail currents were measured at −30 mV.
(§5) Control solution was perfused to the recording chamber (0.5 ml/min) and the test solution was added manually with a syringe, in a volume large enough to replace the control solution manifold. Resin acids compounds were dissolved in DMSO (100 mM) and stored at −20° C. Just prior to experiment the compound was diluted to desired concentration in control solution. Recovery was measured after continuously perfusion of control solution, maximum 5 min. All recordings were made with the perfusion off. Experiments were carried out in room temperature (20-23° C.) and chemicals were purchased from Sigma Aldrich if not stated otherwise.
(§6) Currents were leak subtracted and steady-state currents were measured 80-86 ms after onset of the test voltages (Clampfit 10.5, Molecular Devices). K conductance, GK, was calculated using,
(§7) where IK is the steady-state current, V the absolute membrane voltage and VK the reversal potential for K ions (−80 mV), and the following Boltzmann curve was used to fit the data:
(§8) GK(V)=A/(1+exp((V1/2−V)/s)^n (2)
(§9) where A is the amplitude of the curve, V1/2 the midpoint when n=1, s the slope and n an exponent for better curve fitting, set to n=4. The voltage shift was calculated at 10% of maximal conductance in control curve.
(§10) To quantify the concentration dependence or pH dependence of the GK(V) shifts the following equation was used:
(§11) ΔVG(V)=ΔVMAX/(1+c1/2/c), (3)

[2] = molecular target: wt Shaker Kv channel (Shaker H4, Δ6-46) (Drosophila melanogaster, UniProt P08510, DEL6-46); test: Two-electrode voltage clamp, G(V) shift on wt Shaker Kv channel expressed in Xenopus laevis oocytes; conditions: mean
wt Shaker Kv channel (Shaker H4, Δ6-46), sequence (P08510 other isoform, or with tags, fused parts or gaps DEL6-46): as the sequence (P08510 other isoform, or with tags, fused parts or gaps DEL6-46/M356R/A359R) above, with R315M, R318A counted along it
From the text: as §1, §2, §3, §4, §5, §6, §7, §8, §9, §10, §11

[3] = molecular target: T1, hKv7.2/Kv7.3 (M-channel) (Homo sapiens, UniProt O43525+O43526); test: Two-electrode voltage clamp, G(V) shift on human M-channel expressed in Xenopus laevis oocytes; conditions: for G(V) shift: mean
T1 construct: expressed in transfected cells; host or cells: Xenopus laevis oocytes (cRNAs mixed 1:1)
Procedure: Experiments were also made with the human hKv7.2/Kv7.3, referred to as the M-channel. cRNAs were mixed in a 1:1 molar ratio before injection into oocytes. hKv7.2 [GenBank Acc. No. NM_004518]. hKv7.3 [GenBank Acc. No NM_004519].
as §3, §4, §5
For the M channel tail currents were measured 18 ms after onset and then plotted against the test voltage. The Boltzmann curve (Eq. 2) was used to fit data and the slope was set to shared value between control and test compound. V1/2 was used to calculate the GK(V) shift.
as §10, §11
where ΔVG(v) is the voltage shift, ΔVMAX is the amplitude of the curve, c the concentration, c1/2 the concentration at which half maximum response occur. For compounds with no pH dependence the data was fitted with a horizontal line, with the slope set to 0.

CC(C)C1=CC2=CC[C@@H]3[C@](C)(CCC[C@@]3(C)C(=O)O)[C@H]2CC1 [AA, abietic acid, reference compound]
G(V) shift ([1]; pH 7.4, 100 μM): −16.05 mV

CC(C)c1ccc2c(c1)CC[C@H]1[C@](C)(C(=O)NCC(=O)O)CCC[C@]21C [Wu117, ((1R,4aS,10aR)-7-isopropyl-1,4a-dimethyl-1,2,3,4,4a,9,10,10a-octahydrophenanthrene-1-carbonyl)glycine]
G(V) shift ([1]; pH 7.4, 100 μM): −7.27 mV
G(V) shift ([1]; pH 10, 100 μM): −5.27 mV
G(V) shift ([2]; pH 10, 100 μM): −0.80 mV

CC(C)c1ccc2c(c1)CC[C@H]1[C@](C)(C(=O)N[C@@H](CC(=O)O)C(=O)O)CCC[C@]21C [Wu148, ((1R,4aS,10aR)-7-isopropyl-1,4a-dimethyl-1,2,3,4,4a,9,10,10a-octahydrophenanthrene-1-carbonyl)-L-aspartic acid]
G(V) shift ([1]; pH 5.5, 100 μM): −13.30 mV
G(V) shift ([1]; pH 6.5, 100 μM): −14.23 mV
G(V) shift ([1]; pH 7.4, 100 μM): −14.47 mV
G(V) shift ([1]; pH 9, 100 μM): −11.20 mV
G(V) shift ([1]; pH 10, 100 μM): −9.53 mV
G(V) shift ([2]; pH 7.4, 100 μM): −0.73 mV

CC(C)c1ccc2c(c1)CC[C@H]1[C@](C)(C(=O)NCCCC(=O)O)CCC[C@]21C [Wu149, 4-((1R,4aS,10aR)-7-isopropyl-1,4a-dimethyl-1,2,3,4,4a,9,10,10a-octahydrophenanthrene-1-carboxamido)butanoic Acid]
G(V) shift ([1]; pH 7.4, 100 μM): −4.80 mV
G(V) shift (example recording, normalized G(V) curves) ([1]; pH 7.4, 100 μM, single recording of FIG. 2C): −5.3 mV
G(V) shift ([1]; pH 10, 100 μM): −5.17 mV
G(V) shift ([2]; pH 10, 100 μM): −0.57 mV

CC(C)c1ccc2c(c1)CC[C@H]1[C@](C)(C(=O)NCCCS(=O)(=O)O)CCC[C@]21C [Wu150, 3-((1R,4aS,10aR)-7-isopropyl-1,4a-dimethyl-1,2,3,4,4a,9,10,10a-octahydrophenanthrene-1-carboxamido)propane-1-sulfonic acid]
G(V) shift ([1]; pH 7.4, 100 μM): −9.98 mV
G(V) shift ([2]; pH 7.4, 100 μM): −4.18 mV

CC(C)c1ccc2c(c1)CC[C@H]1[C@](C)(C(=O)NCCCC(=O)NCCCC(=O)O)CCC[C@]21C [Wu151, 4-(4-((1R,4aS,10aR)-7-isopropyl-1,4a-dimethyl-1,2,3,4,4a,9,10,10a-octahydrophenanthrene-1-carboxamido)butanamido)butanoic Acid]
G(V) shift ([1]; pH 7.4, 100 μM): −2.53 mV

CC(C)c1ccc2c(c1)CC[C@H]1[C@](C)(C(=O)NCCC(=O)O)CCC[C@]21C [Wu152, 3-((1R,4aS,10aR)-7-isopropyl-1,4a-dimethyl-1,2,3,4,4a,9,10,10a-octahydrophenanthrene-1-carboxamido)propanoic Acid]
G(V) shift ([1]; pH 7.4, 100 μM): −6.2 mV
G(V) shift ([1]; pH 10, 100 μM): −5.20 mV
G(V) shift ([2]; pH 10, 100 μM): −1.17 mV

CC(C)c1ccc2c(c1)CC[C@H]1[C@](C)(C(=O)NCCC(=O)NCCC(=O)O)CCC[C@]21C [Wu153, 3-(3-((1R,4aS,10aR)-7-isopropyl-1,4a-dimethyl-1,2,3,4,4a,9,10,10a-octahydrophenanthrene-1-carboxamido)propanamido)propanoic Acid]
G(V) shift ([1]; pH 7.4, 100 μM): −2.54 mV

CC(C)c1ccc2c(c1)CC[C@H]1[C@](C)(C(=O)NCCS(=O)(=O)O)CCC[C@]21C [Wu154, 2-((1R,4aS,10aR)-7-isopropyl-1,4a-dimethyl-1,2,3,4,4a,9,10,10a-octahydrophenanthrene-1-carboxamido)ethane-1-sulfonic Acid]
pKa at 100 μM [1]: < 7.4
G(V) shift ([1]; pH 7.4, 100 μM): −9.85 mV
G(V) shift ([2]; pH 7.4, 100 μM): −2.48 mV
G(V) shift ([3]; pH 7.4, 100 μM): −4.60 mV

CC(C)C1=CC2=CC[C@H]3[C@](C)(C(=O)NCCCC(=O)O)CCC[C@]3(C)C2CC1 (stereo partly drawn) [Wu157, 4-((1R,4aR,4bR,10aR)-7-isopropyl-1,4a-dimethyl-1,2,3,4,4a,4b,10,10a-decahydrophenanthrene-1-carboxamido)butanoic Acid]
G(V) shift ([1]; pH 7.4, 100 μM): −7.10 mV

CC(C)c1ccc2c(c1)CC[C@H]1[C@](C)(C(=O)NCP(=O)(O)O)CCC[C@]21C [Wu158, (((1R,4aS,10aR)-7-isopropyl-1,4a-dimethyl-1,2,3,4,4a,9,10,10a-octahydrophenanthrene-1-carboxamido)methyl)phosphonic Acid]
G(V) shift ([1]; pH 7.4, 100 μM): −4.94 mV

CC(C)c1ccc2c(c1)CC[C@H]1[C@](C)(COP(=O)(O)O)CCC[C@]21C [Wu162, ((1R,4aS,10aR)-7-isopropyl-1,4a-dimethyl-1,2,3,4,4a,9,10,10a-octahydrophenanthren-1-yl)methyl Dihydrogen Phosphate]
G(V) shift ([1]; pH 6.5, 100 μM): −10.03 mV
G(V) shift ([1]; pH 7.4, 100 μM): −11.80 mV
G(V) shift ([1]; pH 9, 100 μM): −11.55 mV
G(V) shift ([1]; pH 10, 100 μM): −8.93 mV
G(V) shift ([2]; pH 7.4, 100 μM): −1.18 mV

CC(C)c1ccc2c(c1)CCC1[C@](C)(/C=C/C(=O)O)CCC[C@]21C (stereo partly drawn) [Wu176, (E)-3-((1S,4aS)-7-isopropyl-1,4a-dimethyl-1,2,3,4,4a,9,10,10a-octahydrophenanthren-1-yl)acrylic Acid]
pKa at 100 μM [1]: 6.8
G(V) shift ([1]; pH 5.5, 100 μM): 2.80 mV
G(V) shift ([1]; pH 7.4, 100 μM): −15.16 mV
G(V) shift ([1]; pH 10, 100 μM): −17.10 mV

CC(C)c1ccc2c(c1)CCC1[C@](C)(CC(=O)O)CCC[C@]21C (stereo partly drawn) [Wu180, 2-((1S,4aS)-7-isopropyl-1,4a-dimethyl-1,2,3,4,4a,9,10,10a-octahydrophenanthren-1-yl)acetic acid]
pKa at 100 μM [1]: 7.3
G(V) shift ([1]; pH 5.5, 100 μM): 1.575 mV
G(V) shift ([1]; pH 7.4, 100 μM): −11.04 mV
G(V) shift ([1]; pH 10, 100 μM): −19.18 mV
G(V) shift ([2]; pH 10, 100 μM): −2.40 mV

C[C@@]1(COS(=O)(=O)O)CCC[C@]2(C)c3cc(Cl)c(Cl)c(Cl)c3CC[C@@H]12 [Wu181, ((1R,4aS,10aR)-6,7,8-trichloro-1,4a-dimethyl-2,3,4,9,10,10a-hexahydrophenanthrene-1-yl)methyl hydrogen sulfate]
Increase of affinity compared to DHAA (factor) ([1]; pH 7.4): 16
Increase of affinity compared to Wu161 and Wu50 (factor) ([1]; pH 7.4): 6
Increase of amplitude/efficacy compared to DHAA (factor) ([1]; pH 7.4): 2.0
Increased G(V) shift at low concentrations compared to DHAA (factor) ([1]; pH 7.4): 32
G(V) shift ([1]; pH 7.4, 3 μM): −21.3±2.9 mV
G(V) shift ([1]; pH 7.4, 10 μM): −31.90 mV
ΔVMAX (maximum shift) ([1]; pH 7.4, concentration-response of G(V) shift): −53.6 mV and −53.6±4.0 mV
EC50 ([1]; pH 7.4, concentration-response of G(V) shift, read-out: c1/2 (half-maximal concentration)): 6.1 µM
ΔVMAX (maximum shift) ([3]; concentration-response of G(V) shift): −42.1 mV and −42.1±5.7 mV
EC50 ([3]; concentration-response of G(V) shift, read-out: c1/2 (half-maximal concentration)): 12.4 µM
G(V) shift ([3]; pH 7.4, 10 μM): −18.9±2.4 mV and −18.90 mV
